US10131652B2, “Pyrimidinyloxy benzene derivatives as herbicides” (E. I. DU PONT DE NEMOURS AND COMPANY, priority 2014, dated 2018)

Tests used:
Format in all cases: in vivo
wild oat (Avena fatua) = assay: Test D postemergence plant response
Procedure, shortened: (§1)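 Postemergence spray on plants 2–18 cm tall (1- to 4-leaf stage), grown in pots of peat/vermiculite medium. Plants were kept in a greenhouse for 13–15 days, then visually rated against untreated controls on a 0 (no effect) to 100 (complete control) scale.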

[1] = system: chickweed (common chickweed, Stellaria media); assay: Test D postemergence plant response; settings: for Chickweed plant response rating: scale 0 to 100 (0 no effect, 100 complete control); for Plant response rating, Chickweed: scale 0 to 100, 0 no effect, 100 complete control
Procedure, shortened: as §1

kochia (Kochia scoparia) = assay: Test D postemergence plant response; settings: for Kochia plant response rating: scale 0 to 100 (0 no effect, 100 complete control); for Plant response rating, Kochia: scale 0 to 100, 0 no effect, 100 complete control
Procedure, shortened: as §1

[2] = system: yellow nutsedge (Cyperus esculentus); assay: Test D pre-/postemergence plant response; settings: Postemergence
Procedure, shortened: (§2)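 Pre-/post-emergence greenhouse test. Pre: seeded loam+sand, sprayed same day. Post: 1–4 leaf plants (2–18 cm), peat/vermiculite mix. Formulation: non-phytotoxic solvent + surfactant. Scored visually d13–15, 0–100 vs control.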

[3] = system: winter wheat (Triticum aestivum); assay: Test D pre-/postemergence plant response; settings: Postemergence
Procedure, shortened: as §2

[4] = system: velvetleaf (Abutilon theophrasti); assay: Test D pre-/postemergence plant response; settings: Postemergence
Procedure, shortened: as §2

[5] = system: large (Lg) crabgrass (Digitaria sanguinalis); assay: Test D pre-/postemergence plant response; settings: Postemergence; for Crabgrass, Large plant response rating: scale 0 to 100 (0 no effect, 100 complete control); for Plant response rating, Crabgrass, Large: scale 0 to 100, 0 no effect, 100 complete control
Procedure, shortened: as §2

soybean (Glycine max) = assay: Test D pre-/postemergence plant response; settings: Postemergence
Procedure, shortened: as §2

[6] = system: johnsongrass (Sorghum halepense); assay: Test D pre-/postemergence plant response; settings: Postemergence; for Johnsongrass plant response rating: scale 0 to 100 (0 no effect, 100 complete control); for Plant response rating, Johnsongrass: scale 0 to 100, 0 no effect, 100 complete control
Procedure, shortened: as §2

[7] = system: oilseed rape (Brassica napus); assay: Test D pre-/postemergence plant response; settings: Postemergence
Procedure, shortened: as §2

rice (Oryza sativa) = assay: Test C flooded paddy test plant response; settings: Flood, 250 g ai/ha; scale of 0 to 100 where 0 is no effect and 100 is complete control; 13 to 15 days
Procedure, shortened: (§3)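 Readout is a visual 0–100 score (100 = complete control) versus controls at 13–15 days. Plants at 2-leaf stage, flooded to 3 cm, treated through paddy water.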

[8] = system: barnyardgrass (Echinochloa crus-galli); assay: Test C flooded paddy test plant response; settings: Flood, 250 g ai/ha; scale of 0 to 100 where 0 is no effect and 100 is complete control; 13 to 15 days
Procedure, shortened: as §3

[9] = system: small-flower umbrella sedge (Cyperus difformis); assay: Test C flooded paddy test plant response; settings: Flood, 250 g ai/ha; scale of 0 to 100 where 0 is no effect and 100 is complete control; 13 to 15 days
Procedure, shortened: as §3

[10] = system: ducksalad (Heteranthera limosa); assay: Test C flooded paddy test plant response; settings: Flood, 250 g ai/ha; scale of 0 to 100 where 0 is no effect and 100 is complete control; 13 to 15 days
Procedure, shortened: as §3

[11] = 31 g ai/ha, scale 0 to 100 (0 no effect, 100 complete control)
[12] = 62 g ai/ha, scale 0 to 100, 0 no effect, 100 complete control
[13] = 125 g ai/ha, scale 0 to 100, 0 no effect, 100 complete control
[14] = 16 g ai/ha, scale 0 to 100 (0 no effect, 100 complete control)

FC(F)c1cc(-c2ccccc2Oc2ncc(Br)cn2)on1 [Compound 212]
Plant response rating (scale 0 to 100), Oat, Wild (wild oat (Avena fatua); 16 g ai/ha): 0
Oat, Wild plant response rating (wild oat (Avena fatua); [11]): 0
Oat, Wild plant response rating (wild oat (Avena fatua); [12]): 5
Plant response rating, Oat, Wild (wild oat (Avena fatua); [13]): 10
Plant response rating (scale 0 to 100), Chickweed ([1]; 16 g ai/ha): 10
Chickweed plant response rating ([1]; 31 g ai/ha): 30
Plant response rating, Chickweed ([1]; 62 g ai/ha): 30
Plant response rating, Chickweed ([1]; 125 g ai/ha): 80
Plant response rating (scale 0 to 100), Kochia (kochia (Kochia scoparia); 16 g ai/ha): 90
Kochia plant response rating (kochia (Kochia scoparia); 31 g ai/ha): 100
Plant response rating, Kochia (kochia (Kochia scoparia); 62 g ai/ha): 100
Plant response rating, Kochia (kochia (Kochia scoparia); 125 g ai/ha): 100
Plant response rating (scale 0 to 100), Nutsedge, Yellow ([2]; 16 g ai/ha): 10
Nutsedge, Yellow plant response rating [2, 11]: 5
Nutsedge, Yellow plant response rating [2, 12]: 10
Plant response rating, Nutsedge, Yellow [2, 13]: 5
Plant response rating (scale 0 to 100), Wheat ([3]; 16 g ai/ha): 0
Wheat plant response rating [3, 11]: 5
Wheat plant response rating [3, 12]: 5
Plant response rating, Wheat [3, 13]: 15
Plant response rating (scale 0 to 100), Velvetleaf ([4]; 16 g ai/ha): 20
Velvetleaf plant response rating [4, 11]: 50
Velvetleaf plant response rating [4, 12]: 60
Plant response rating, Velvetleaf [4, 13]: 90
Plant response rating (scale 0 to 100), Crabgrass, Large ([5]; 16 g ai/ha): 5
Crabgrass, Large plant response rating ([5]; 31 g ai/ha): 10
Plant response rating, Crabgrass, Large ([5]; 62 g ai/ha): 10
Plant response rating, Crabgrass, Large ([5]; 125 g ai/ha): 15
Plant response rating (scale 0 to 100), Soybean (soybean (Glycine max); 16 g ai/ha): 60
Soybean plant response rating (soybean (Glycine max); [11]): 70
Soybean plant response rating (soybean (Glycine max); [12]): 85
Plant response rating, Soybean (soybean (Glycine max); [13]): 90
Plant response rating (scale 0 to 100), Johnsongrass ([6]; 16 g ai/ha): 5
Johnsongrass plant response rating ([6]; 31 g ai/ha): 5
Plant response rating, Johnsongrass ([6]; 62 g ai/ha): 20
Plant response rating, Johnsongrass ([6]; 125 g ai/ha): 20
Plant response rating (scale 0 to 100), Oilseed Rape ([7]; 16 g ai/ha): 10
Oilseed Rape plant response rating [7, 12]: 20
Plant response rating, Oilseed Rape [7, 13]: 35
Rice plant response rating (rice (Oryza sativa)): 20
Barnyardgrass plant response rating [8]: 0
Sedge, Umbrella plant response rating [9]: 75
Ducksalad plant response rating [10]: 75

FC(Cl)c1cc(-c2ccccc2Oc2ncc(Cl)cn2)no1 (centres unmarked) [Compound 116]
Oat, Wild plant response rating (wild oat (Avena fatua); [14]): 5
Oat, Wild plant response rating (wild oat (Avena fatua); [11]): 5
Plant response rating, Oat, Wild (wild oat (Avena fatua); [12]): 10
Plant response rating, Oat, Wild (wild oat (Avena fatua); [13]): 15
Chickweed plant response rating ([1]; 16 g ai/ha): 5
Chickweed plant response rating ([1]; 31 g ai/ha): 15
Plant response rating, Chickweed ([1]; 62 g ai/ha): 30
Plant response rating, Chickweed ([1]; 125 g ai/ha): 90
Kochia plant response rating (kochia (Kochia scoparia); 16 g ai/ha): 100
Kochia plant response rating (kochia (Kochia scoparia); 31 g ai/ha): 100
Plant response rating, Kochia (kochia (Kochia scoparia); 62 g ai/ha): 100
Plant response rating, Kochia (kochia (Kochia scoparia); 125 g ai/ha): 100
Nutsedge, Yellow plant response rating [2, 14]: 5
Nutsedge, Yellow plant response rating [2, 11]: 5
Plant response rating, Nutsedge, Yellow [2, 12]: 10
Plant response rating, Nutsedge, Yellow [2, 13]: 25
Wheat plant response rating [3, 14]: 70
Wheat plant response rating [3, 11]: 0
Plant response rating, Wheat [3, 12]: 5
Plant response rating, Wheat [3, 13]: 5
Velvetleaf plant response rating [4, 14]: 55
Velvetleaf plant response rating [4, 11]: 65
Plant response rating, Velvetleaf [4, 12]: 70
Plant response rating, Velvetleaf [4, 13]: 75
Crabgrass, Large plant response rating ([5]; 16 g ai/ha): 5
Crabgrass, Large plant response rating ([5]; 31 g ai/ha): 5
Plant response rating, Crabgrass, Large ([5]; 62 g ai/ha): 25
Plant response rating, Crabgrass, Large ([5]; 125 g ai/ha): 40
Soybean plant response rating (soybean (Glycine max); [14]): 40
Soybean plant response rating (soybean (Glycine max); [11]): 55
Plant response rating, Soybean (soybean (Glycine max); [12]): 30
Plant response rating, Soybean (soybean (Glycine max); [13]): 95
Johnsongrass plant response rating ([6]; 16 g ai/ha): 10
Johnsongrass plant response rating ([6]; 31 g ai/ha): 20
Plant response rating, Johnsongrass ([6]; 62 g ai/ha): 20
Oilseed Rape plant response rating [7, 14]: 50
Oilseed Rape plant response rating [7, 11]: 10
Plant response rating, Oilseed Rape [7, 12]: 55
Plant response rating, Oilseed Rape [7, 13]: 70
Rice plant response rating (rice (Oryza sativa)): 30
Barnyardgrass plant response rating [8]: 0
Sedge, Umbrella plant response rating [9]: 90
Ducksalad plant response rating [10]: 95

FC(F)(F)c1cc(-c2c(I)cccc2Oc2ncc(Cl)cn2)no1 [Compound 156]
Plant response rating (scale 0 to 100), Oat, Wild (wild oat (Avena fatua); 8 g ai/ha): 0
Oat, Wild plant response rating (wild oat (Avena fatua); [11]): 0
Plant response rating, Oat, Wild (wild oat (Avena fatua); [12]): 0
Plant response rating (scale 0 to 100), Chickweed ([1]; 8 g ai/ha): 5
Chickweed plant response rating ([1]; 16 g ai/ha): 5
Chickweed plant response rating ([1]; 31 g ai/ha): 45
Plant response rating, Chickweed ([1]; 62 g ai/ha): 70
Plant response rating (scale 0 to 100), Kochia (kochia (Kochia scoparia); 8 g ai/ha): 0
Kochia plant response rating (kochia (Kochia scoparia); 31 g ai/ha): 30
Plant response rating, Kochia (kochia (Kochia scoparia); 62 g ai/ha): 45
Plant response rating (scale 0 to 100), Nutsedge, Yellow ([2]; 8 g ai/ha): 0
Nutsedge, Yellow plant response rating [2, 11]: 5
Plant response rating, Nutsedge, Yellow [2, 12]: 5
Plant response rating (scale 0 to 100), Wheat ([3]; 8 g ai/ha): 0
Wheat plant response rating [3, 11]: 5
Plant response rating, Wheat [3, 12]: 10
Plant response rating (scale 0 to 100), Velvetleaf ([4]; 8 g ai/ha): 0
Velvetleaf plant response rating [4, 11]: 15
Plant response rating, Velvetleaf [4, 12]: 25
Plant response rating (scale 0 to 100), Crabgrass, Large ([5]; 8 g ai/ha): 0
Crabgrass, Large plant response rating ([5]; 16 g ai/ha): 5
Crabgrass, Large plant response rating ([5]; 31 g ai/ha): 5
Plant response rating, Crabgrass, Large ([5]; 62 g ai/ha): 10
Plant response rating (scale 0 to 100), Soybean (soybean (Glycine max); 8 g ai/ha): 5
Soybean plant response rating (soybean (Glycine max); [11]): 25
Plant response rating, Soybean (soybean (Glycine max); [12]): 30
Plant response rating (scale 0 to 100), Johnsongrass ([6]; 8 g ai/ha): 0
Johnsongrass plant response rating ([6]; 31 g ai/ha): 5
Plant response rating, Johnsongrass ([6]; 62 g ai/ha): 10
Plant response rating (scale 0 to 100), Oilseed Rape ([7]; 8 g ai/ha): 5
Oilseed Rape plant response rating [7, 11]: 40
Plant response rating, Oilseed Rape [7, 12]: 45
Rice plant response rating (rice (Oryza sativa)): 0
Barnyardgrass plant response rating [8]: 0
Sedge, Umbrella plant response rating [9]: 0
Ducksalad plant response rating [10]: 0
